Data from patent US5840696A (priority 1997, dated 1998).

Key:
pulmonary vascular bed = pulmonary vascular bed of the intact-chest anesthetized rat under elevated pulmonary vasomotor tone; format: in vivo; conditions: intralobar arterial bolus injections
Experimental: Since pulmonary blood flow and left atrial pressure were held constant, the decreases in pulmonary artery pressure directly reflect decreases in pulmonary vascular resistance. N=number of animals.
Male Charles River rats (260-340 go) were anesthetized with an intraperitoneal injection of pentobarbital sodium (30 mg/kg), and allowed to breath air enriched with oxygen through an endotracheal tube inserted by tracheotomy. The anesthetized animals were strapped in a supine position to a fluoroscopic table, and catheters were inserted in femoral blood vessels. A specially designed triple lumen balloon perfusion catheter was constructed (Nu-Med, Hopkinton, N.Y.). This catheter is 145 mm in length, […]. and with specially curved tip to facilitate passage through the right heart and main pulmonary artery into the artery supplying the right lower lung lobe. At the distal tip of the catheter is a pressure port through which a 0.25 mm soft tip coronary artery angioplasty guide wire is inserted. […] Mean pressure in the right lower lobe artery and the aorta were continuously recorded. […] Since this catheter perfuses approximately one-sixth of the lung, as determined by measuring lung weight, this perfusion rate approximate physiologic flow for that lung area, i.e. at least 15-20% of the 75-85 ml/min normal total pulmonary blood flow of the rat. […]

[1] = tested on: conscious Sprague-Dawley rats; assay: intravenous infusion of nociceptin in conscious chronically instrumented rats: cardiovascular and renal responses; format: in vivo, rat; conditions: i.v. infusion 20 μg/kg/min
Experimental: Anesthetized male Sprague-Dawley rats (275-300 g, Sprague-Dawley, Inc., Indianapolis, Ind.) were implanted with chronic arterial and venous cannulas and a bladder catheter in accordance with previously published methods (10, 12). For experiments in which drugs were administered i.c.v., a stainless steel cannula was stereotaxically implanted into the right lateral ventricle of rats under anesthesia at least 5-7 days prior to experimentation (11). On the morning of the study rats were placed in a rat holder which permits forward and backward movement and allows for collection of urine from the bladder catheter. Conscious rats were then infused i.v. with isotonic saline (50 μl/min) for the duration of the experiment. The arterial cannulae was then flushed and attached to a pressure transducer (Statham P23Db) and the urinary bladder catheter led to a collection beaker. After equilibration and stabilization of urine flow rate and urinary sodium excretion (approximately 2-3 hours) the experimental protocol described in each figure legend commenced. Intravenous and i.c.v. stock solutions of nociceptin and nor-binaltorphimine were prepared fresh in isotonic saline vehicle. […] Animal experimentation and care procedures were in accordance with the National Institutes of Health guidelines for the care and use of animals.
Statistical significance was determined by a repeated measure analysis of variance followed by a Bonferroni multiple comparisons test; asterisks denote a significant difference (p<0.05) from the respective group control.

[2] = tested on: conscious Sprague-Dawley rats; assay: i.v. bolus administration of 30 μg nociceptin in conscious rats; format: in vivo, rat; conditions: i.v. bolus 30 μg
Experimental: Abbreviations are HR, heart rate; MAP, mean arterial pressure; V, urine flow rate; and UNa V, urinary sodium excretion. Statistical significance within each group was determined by a repeated measures analysis of variance followed by a Bonferroni multiple comparisons test; asterisks (a, b, or c) denote a significant change (p<0.05) from control within each group.
Anesthetized male Sprague-Dawley rats (275-300 g, Sprague-Dawley, Inc., Indianapolis, Ind.) were implanted with chronic arterial and venous cannulas and a bladder catheter in accordance with previously published methods (10, 12). For experiments in which drugs were administered i.c.v., a stainless steel cannula was stereotaxically implanted into the right lateral ventricle of rats under anesthesia at least 5-7 days prior to experimentation (11). On the morning of the study rats were placed in a rat holder which permits forward and backward movement and allows for collection of urine from the bladder catheter. Conscious rats were then infused i.v. with isotonic saline (50 μl/min) for the duration of the experiment. The arterial cannulae was then flushed and attached to a pressure transducer (Statham P23Db) and the urinary bladder catheter led to a collection beaker. […]

[3] = tested on: conscious and pentobarbital-anesthetized rats; assay: influence of pentobarbital anesthesia on renal and vascular effects of nociceptin; format: in vivo, rat
Source text: N=number of rats. *≤0.05 significant when compared using ANOVA.
N=number of animals. *≤0.05 when ANOVA used statistical comparison.

[4] = tested on: isolated rat aortic vascular rings; assay: vasorelaxant response of isolated rat aortic rings in vitro precontracted with U46619
Experimental: Aortic rings were precontracted with U46619, a thromboxane A2 mimic.
Rat aortic rings in vitro (with intact endothelium) were precontracted with […], a thromboxane A2 mimic.
Male rats (250-350g) were anesthetized with pentobarbital sodium (30 mg/Kg i.p). The rat lungs were quickly removed and immersed in cold (4° C.) Krebs-Henseleit (K-H) solution (composition mM: NaCl 118, KCl 4.7, CaCl2 2.5, KH2 PO4 1.2, NaHCO3 25, MgSO4 1.2, and dextrose 10). Pulmonary arteries (PA) were isolated and excess fat and connective tissue were removed. Vessels were cut into rings of about 2.5-3 mm in length and were mounted in organ baths containing 5 ml K-H solution. Two stainless steel hooks were inserted into the lumen of the pulmonary artery (PA), one was fixed while the other was connected to a transducer. The tissue bath solution was maintained at 37° C. and bubbled with a 95% O2 -5%CO2 mixture. The pulmonary arteries were equilibrated for 90 min with three changes of K-H solution and an optimal tension of 1 gr. applied. Contractions were measured isometrically with a force displacement transducer (FTO3, Grass, USA) and were recorded on a Grass model 7 polygraph. The contractile ability of each ring was then examined by exposure to 60 mM KCl, then washed and allowed to dilate to baseline tension. […] The integrity of the endothelium was determined by obtaining a maximal vasorelaxant response to ACh. […]

mice = conditions: administration to mice, literature (4,5); cited from earlier work

CC(C)C[C@H](NC(=O)[C@H](CCCCN)NC(=O)[C@H](CCCN=C(N)N)NC(=O)[C@H](C)NC(=O)[C@H](CO)NC(=O)[C@H](CCCCN)NC(=O)[C@H](CCCN=C(N)N)NC(=O)[C@H](C)NC(=O)CNC(=O)[C@@H](NC(=O)[C@H](Cc1ccccc1)NC(=O)CNC(=O)CNC(=O)[C@@H](N)Cc1ccccc1)[C@@H](C)O)C(=O)N[C@@H](C)C(=O)N[C@@H](CC(N)=O)C(=O)N[C@@H](CCC(N)=O)C(=O)O [nociceptin]
pulmonary vasodilator response after L-NAME and L-NIO (pulmonary vascular bed): inhibit | effect on the pulmonary vascular bed (pulmonary vascular bed; tone elevated with U46619): dilates the pulmonary vascular bed | behavioral or sedative effects [1]: did not produce any behavioral or sedative effects | duration of renal responses [1]: approximately 70 min | heart rate [1]: did not alter heart rate | time of peak changes in renal responses after start of infusion [1]: approximately 40 min | urinary sodium excretion ([1]; conscious rats): decrease | urine flow rate ([1]; conscious rats): profound increase | mean arterial pressure ([1]; sustained throughout infusion): slight, but statistically significant decrease | cardiovascular and renal parameters [2]: did not alter any cardiovascular or renal parameter | systemic vasodepressor activity, anesthetized versus conscious rats ([3]; bolus i.v. injection): greater systemic vasodepressor activity | ability to increase urinary flow rate (V) under anesthesia ([3]; rats anesthetized with sodium pentobarbital, i.v. infusion): inhibited | aortic vasorelaxant response in the presence of inhibitors of nitric oxide formation and function ([4]; endothelial cell removal, methylene blue, L-NAME, L-NIO): blocked | vasorelaxant response after cycloxygenase blockade ([4]; meclofenamate): lack of an inhibitory effect | response to painful stimuli (mice): hypersensitivity to painful stimuli
